Assays:
isolated trachea = assay: Allergen (OA)-induced contraction of isolated trachea from sensitized guinea pigs; parameters: species or system guinea pig; conditions: 20 µM compound
Description: The effects of a number of the compounds described herein on allergen-induced bronchoconstriction were evaluated for anti-asthma activity. The ability of a compound to inhibit allergen-induced decreases in lung function in sensitized guinea pigs in response to antigen-challenge is indicative of anti-asthma activity. In particular, the model system is useful in the evaluation of the potential effects of a compound in the treatment of the early asthmatic reaction (EAR) when severe bronchoconstriction occurs.
Guinea pigs were exposed to a nebulized solution of 1% ovalbumin (OA) in saline for 15 min. […] Tracheal rings were prepared and bathed in Krebs-Henseleit solution at 37°C and aerated with 5% CO2 in O2. Tissues were suspended under a resting tension of 2 g and isometric contractions were measured using force-displacement transducers coupled to a polygraph. Tissues were incubated with each compound or 0.1% dimethylsulfoxide (as a control) for 20 min, after which increasing concentrations of OA (0.001 - 100 µg/ml) were added to the tissue. After the final concentration of OA was added and the response was recorded, the tissues were stimulated with 100 µM methacholine which caused maximum contraction of the trachea. The magnitude of the contraction induced by OA in the presence of each compound was expressed as a percentage of the maximum contraction obtained using methacholine (100 µM).

rabbit platelets = assay: Inhibition of PAF-induced aggregation of rabbit platelets; type: cell-based; conditions: 80 µM compound, 5 min preincubation, PAF-induced aggregation (title: 0.1 nM PAF) vs DMSO alone; for inhibition at 80 µM: Oryctolagus cuniculus, Platelet
Description: The assay system used to evaluate the ability of compounds to inhibit the aggregation of platelets in response to exogenous stimuli is indicative of anti-thrombotic or thrombolytic activity.
Platelets were isolated from rabbit blood and prepared at a density of 2.4 x 10^8 cells/ml in Tyrodes buffer (pH 7.2) containing Ca^2+. Platelets were incubated with each compound for 5 min at 37°C prior to stimulation. Platelets were stimulated with 1 nM platelet activating factor (PAF; EC75) in the presence of each of the compounds and aggregation was monitored for 5 min. Compounds were solubilized in dimethylsulfoxide (DMSO) and aggregation was measured as a percentage of the response to 1 nM PAF obtained in the presence of the appropriate concentration of DMSO. The degree of inhibition caused by each sample was calculated using the control response in the presence of DMSO equal to 100%.

[1] = tested on: ileum from sensitized guinea pigs; assay: Antigen (ovalbumin)-induced contraction of isolated ileum from sensitized guinea pigs; parameters: species or system guinea pig; conditions: each 30 µM, 20 min; 100 µg/ml ovalbumin; mean, n=3-4, vs DMSO alone
Description: The ability of compounds to inhibit allergen-induced contraction of ileum from sensitized animals is indicative of antiallergic activity. Sensitized guinea pig ileum is particularly useful in measuring the immediate allergic response.
The guinea pig ileum has been used to evaluate the ability of compounds to inhibit allergen-induced histamine and mediator release causing smooth muscle contraction. Guinea pigs were sensitized by an intraperitoneal injection of 100 mg ovalbumin and an intramuscular injection of 50 mg ovalbumin on day 0, followed by a second intramuscular injection of 50 mg ovalbumin on day 1. […] Segments of ileum were prepared and suspended, with muscle contractions being measured in the longitudinal plane, in Tyrode's buffer at 37°C and aerated with 5% CO2 in O2. Tissues were suspended under a resting tension of 2 grams and isometric contractions were measured using force-displacement transducers coupled to a polygraph. Tissues were stimulated with 3 µM histamine 3 times to ensure reproducible contractions were obtained. Tissues were then incubated with each compound (30 µM) or 0.15% dimethylsulphoxide (DMSO) as a control, for 20 min, after which time the tissues were challenged with 100 µg/ml ovalbumin. The magnitude of the contraction induced by OA in the presence of each compound was expressed as a percentage of the contraction obtained to 3 µM histamine. […]

[2] = tested on: rat mast cell line (RBL-2H3); assay: Antigen-induced release of hexosaminidase from passively sensitized rat mast cells; type: cell-based; conditions: Table 3; each 25 µM; vs DMSO alone
Description: The anti-allergic effects of various polyhydroxylated steroids of the present invention were evaluated by measuring their effect on antigen-induced secretion of hexosaminidase from a passively sensitized rat mast cell line (RBL-2H3) and a murine mast cell line (MC/9). The ability of agents to inhibit the release of mast cell granule contents, e.g., histamine and hexosaminidase, is indicative of anti-allergy and/or anti-asthma activity.
Hexosaminidase is released from the mast cell granule along with histamine and other mediators during antigen challenge. RBL-2H3 and MC/9 cells were grown in culture and passively sensitized to dinitrophenol (DNP) using anti-human-DNP (IgE). […] Aliquots of the supernatant were removed and used to measure the amount of hexosaminidase released during challenge with the antigen. […] The effect of each compound was determined as a percentage of the antigen-induced response (minus background release) obtained in the presence of DMSO alone, as set forth in Tables 2 and 3. These values were used to determine the degrees of inhibition of antigen-induced hexosaminidase release from the cells.

Row | Compound | percentage contraction compared to 100µM methacholine (100%) (isolated trachea; Study 1, 0.001 µg/ml OA) [%] | percentage contraction compared to 100µM methacholine (100%) (isolated trachea; Study 1, 0.003 µg/ml OA) [%] | percentage contraction compared to 100µM methacholine (100%) (isolated trachea; Study 1, 0.01 µg/ml OA) [%] | percentage contraction compared to 100µM methacholine (100%) (isolated trachea; Study 1, 0.03 µg/ml OA) [%] | percentage contraction compared to 100µM methacholine (100%) (isolated trachea; Study 1, 0.1 µg/ml OA) [%] | percentage contraction compared to 100µM methacholine (100%) (isolated trachea; Study 1, 0.3 µg/ml OA) [%] | percentage contraction compared to 100µM methacholine (100%) (isolated trachea; Study 1, 1.0 µg/ml OA) [%] | percentage contraction compared to 100µM methacholine (100%) (isolated trachea; Study 1, 3.0 µg/ml OA) [%] | percentage contraction compared to 100µM methacholine (100%) (isolated trachea; Study 1, 10.0 µg/ml OA) [%] | percentage contraction compared to 100µM methacholine (100%) (isolated trachea; Study 1, 30.0 µg/ml OA) [%] | inhibition at 80 µM (rabbit platelets) [%] | Percentage Inhibition [1] [%] | percentage contraction compared to 100µM methacholine (100%) (isolated trachea; Study 2, 0.01 µg/ml OA) [%] | percentage contraction compared to 100µM methacholine (100%) (isolated trachea; Study 2, 0.1 µg/ml OA) [%] | percentage contraction compared to 100µM methacholine (100%) (isolated trachea; Study 2, 1 µg/ml OA) [%] | percentage contraction compared to 100µM methacholine (100%) (isolated trachea; Study 2, 10 µg/ml OA) [%] | percentage contraction compared to 100µM methacholine (100%) (isolated trachea; Study 2, 100 µg/ml OA) [%] | Percentage Inhibition (mean) RBL-2H3 Cells [2] [%] | %Inhibition at 80 µM (rabbit platelets) [%]
1 | C[C@]12CC[C@@H](O)[C@H](O)C1[C@@H](O)[C@H](O)C1C2CC[C@]2(C)C(=O)CCC12 (some centres unmarked) [Compound 145] | 0.8 | 6.2 | 5.9 | 7.6 | 8.3 | 13.6 | 14.8 | 20.0 | 28.0 | 31.0 | – | – | – | – | – | – | – | – | –
2 | C[C@]12CC[C@@H](O)[C@H](O)[C@@H]1[C@@H](O)[C@H](O)[C@@H]1[C@@H]2CC[C@]2(C)[C@@H](O)CC[C@@H]12 [Compound 241, 3α,4β,6α,7β,17β-pentahydroxy-5α-androstane] | 8.5 | 12.6 | 17.1 | 25.8 | 31.0 | 33.4 | 36.3 | 34.4 | 35.0 | 37.0 | 93.1 | – | – | – | – | – | – | – | –
3 | CC(C)[C@@H]1CC(O)OC([C@@H](C)[C@H]2CC(=O)[C@@H]3[C@@H]4C(O)C(O)C5C(O)C(O)CC[C@]5(C)[C@H]4CC[C@]23C)C1 (stereo partly drawn) [Compound 165, 22,29-epoxy-3,4,6,7,29-pentahydroxy-14β-stigmastan-15-one] | – | – | – | – | – | – | – | – | – | – | 51.2 | 27.0 | – | – | – | – | – | – | –
4 | C[C@]12CC[C@@H](O)C[C@@H]1[C@@H](O)[C@H](O)[C@@H]1[C@@H]2CC[C@]2(C)C(=O)CC[C@@H]12 [Compound 326] | – | – | – | – | – | – | – | – | – | – | – | – | 0 | 10.25 | 23.4 | 43.9 | 49.1 | – | –
5 | 3β, 4α, 6α, 7β, 17β-pentahydroxy-5α-androstane 6,7-acetonide [Compound 246] | 2.6 | 4.0 | 6.5 | 9.7 | 12.2 | 15.3 | 20.0 | 21.0 | 23.0 | 22.0 | – | – | – | – | – | – | – | 29.4 | 21
6 | CC1(C)O[C@@H]2C3C(CC[C@@]4(C)C3CC[C@@H]4O[Si](C)(C)C(C)(C)C)[C@@]3(C)CC[C@H](O)[C@@H](O)C3[C@H]2O1 (some centres unmarked) [Compound 236] | 1.9 | 5.6 | 5.6 | 5.6 | 11.1 | 16.7 | 39 | 28 | 39 | 41 | – | – | – | – | – | – | – | – | –
7 | CC[C@H]1CCC2C3C(CC[C@@]21C)[C@@]1(C)CC[C@@H](O)CC1[C@@H](O)[C@@H]3O (some centres unmarked) [Compound 339] | – | – | – | – | – | – | – | – | – | – | – | 36.3 | – | – | – | – | – | – | –
8 | C[C@]12CC[C@@H](O)C[C@@H]1[C@@H](O)[C@H](O)[C@@H]1[C@@H]2CC[C@]2(C)[C@@H](O)CC[C@@H]12 [Compound 327] | – | – | – | – | – | – | – | – | – | – | – | – | 0 | 0 | 9.1 | 27.3 | 40.9 | – | –
